Source: patent publication US20090220964A1, “METHODS FOR DIAGNOSING AND TREATING CANCERS VIA MANIPULATIONS OF A...PATHWAY” (UNIVERSITY OF CINCINNATI, priority 2006, published 2009)

How the values were obtained:
pVHL = test: Immunoblot of crude chromatin fractions after H2O2 treatment; settings: cells expressing wild type pVHL, 25 μM H2O2, collected 4 h after treatment
Description: In our experiments, we fractionated the pool of Rpb1 engaged on DNA using nuclease digestion and different salt extractions: the nuclear pellet remaining after standard extraction of nuclei with 0.3 M salt was digested with DNAse and micrococcal nuclease, and the digest was then extracted with the indicated concentrations of NaCl (FIG. 3). […] Two other antibodies against Rpb1 were also used: H14, and N20, which is specific for the N-terminal region of Rpb1, independent of its phosphorylation state.

Rpb1 = settings: 786-0 VHL(+) cells, 25 μM H2O2, 15 min, nuclease digested extracts
Description: The antibody was used to investigate the role of oxidative stress in P1465 hydroxylation and pVHL-dependent ubiquitylation of Rpb1. […] The experiments were performed using RCC 786-0 cells, a well-characterized model of renal cell cancer, in which native pVHL is absent or stably reconstituted (in legend: 786-0 VHL(−) and VHL(+)). The cells were exposed briefly to a low concentration of H2O2 (25 μM, 15 min) to induce a generic oxidative stress, and assayed at the indicated time points after treatment.

Rpb1 peptides = settings: nuclear extracts from 786-0 VHL(+) cells treated with 25 μM H2O2, collected after 4 h; 37- or 24-amino acid peptides
Description: (§1) The in vitro reactions of synthetic Rpb1 and HIF-1α peptides were performed using nuclear extracts from cells treated with 25 μM H2O2 and collected after 4 h.

HIF-1α peptide = settings: nuclear extracts from VHL(+) cells treated with 25 μM H2O2, collected after 4 h; 17-amino acid peptide
Description: as §1

[1] = system: deubiquitylating enzymes, isopeptidase T and ubiquitin C-terminal hydrolase L3; test: Deubiquitylation of Rpb1 in chromatin extract by deubiquitylating enzymes; type: biochemical; settings: second 0.5 M chromatin fraction of VHL(+) cells
Description: Rpb1 was immunoprecipitated using H14 antibody from the second 0.5 M chromatin fraction, and the immunoprecipitated Rpb1 was immunobloted with BP and anti-ubiquitin antibodies (FIG. 3D). Clearly, the Rpb1 hyperphosphorylated on Ser-5 is also hydroxylated and ubiquitylated in response to oxidative stress and this response depends on the presence of functional pVHL (FIG. 1C). To confirm ubiquitylation of the hydroxylated and hyperphosphorylated Rpb1, the extracts from the second 0.5 M chromatin fraction of VHL(+) cells were incubated with deubiquitylating enzymes, isopeptidase T and ubiquitin C-terminal hydrolase L3. This treatment results in disappearance of the high migrating forms (FIG. 3E. lane 3) which is prevented by ubiquitin aldehyde, an inhibitor of deubiquitylating enzymes (FIG. 3E, lane 4).

Molecule | enrichment of pVHL in chromatin extract fractions (pVHL) | hydroxylation of Rpb1 (Rpb1) | Rpb1 peptide hydroxylation (capture of [35S]-labeled pVHL) (Rpb1 peptides) | HIF-1α peptide hydroxylation (capture of [35S]-labeled pVHL) (HIF-1α peptide) | disappearance of high migrating (ubiquitylated) forms of Rpb1 [1]
OO [H2O2, hydrogen peroxide] | 3.5+/−1.1 fold increase | induced persistent (lasting several hours) pVHL-dependent hydroxylation of Rpb1 | augmented peptide hydroxylation | not affected | –
ubiquitin aldehyde | – | – | – | – | prevented
